The values below come from patent publication US11666577B2 (National Institute of Biological Sciences, Beijing, priority 2018, dated 2023).

The first assay has as its system HT-29 cells. Put plainly: Necroptosis assay (TNF-α/Smac mimetic/z-VAD, TSZ-induced) in HT-29 cells. It counts as cell-based, human. The following applies: Homo sapiens, HT-29, 24 h; read-out: EC50 (nM), potency in TSZ-induced necroptosis assays in HT-29 cells. On the procedure:
Methods: HT-29 cells were cultured in McCoy's 5 A culture medium (Invitrogen). On day one, HT-29 cells were plated in 96-well assay plates at density of 2,500-3,500 cells per well. On day two, necrosis were induced by adding 20 ng/ml TNF-α (T), 100 nM Smac mimetic (S), and […] z-VAD (Z). At the same time, 10 mM compound from a chemical library of ˜200,000 compounds was delivered into each well. After 24 hrs treatment, cell viability was determined by measuring ATP level using the Cell Titer-Glo Luminescent Cell Viability Assay kit. A CellTiter-Glo Assay (Promega) was performed according to the manufacturer's instructions. Luminescence was recorded with a PerkinElmer EnSpire Multimode Plate Reader. Survived cells were normalized to those cells treated with DMSO. RIPA-56 was used as a positive control for screening necroptosis inhibitors. Data are represented as mean±standard deviation of duplicates.
In previous work, we performed a cell-based high-throughput screen to identify necroptosis inhibitors using a chemical library of ˜200,000 compounds and identified multiple compounds that protected human colorectal adenocarcinoma (HT-29) cells from TNF-α/Smac mimetic/Z-VAD-fmk (TSZ)-induced necroptosis.^[4]
The anti-necroptosis potency of compounds 7-12 and 14-18 was evaluated in the HT-29 cell line; the EC50 values are shown in Table B.
[a] Necroptosis was induced in HT-29 cells for 24 h; the EC50 values given here are the mean values of at least three independent analyses.
As to `C#CCn1c(=O)n(C)c(=O)c2c1nc(S(C)(=O)=O)n2C` [Compound 12], the EC50 was 152 ± 23 nM.

The assay is the same for the next values; noted with them: Homo sapiens; Series 1 (Table 1) compounds 1-146; HT-29 cells, TNF-α/Smac mimetic/z-VAD, 24 hrs, cell viability by ATP level; read-out: Series 1 compound necroptosis activity.
As to `CCCn1c(=O)n(C)c(=O)c2c1nc(S(C)(=O)=O)n2C` [Compound 101, 1,7-dimethyl-8-(methylsulfonyl)-3-propyl-1H-purine-2,6(3H,7H)-dione], the EC50 fell in the range of 1000 to 100000 nM.
On to `CC(C)S(=O)(=O)c1nc2c(c(=O)n(C)c(=O)n2C)n1C` [Compound 18], for which the EC50 was in the range of 1000 to 100000 nM.
The same measure, in the same setting: as for `Cn1c(=O)c2c(nc(S(=O)(=O)CC3CC3)n2C)n(Cc2ccc(Br)cc2)c1=O` [Compound 141, 3-(4-bromobenzyl)-8-((cyclopropylmethyl)sulfonyl)-1,7-dimethyl-1H-purine-2,6(3H,7H)-dione], the figure is 1000 to 100000 nM.
Same read-out and setting: the figure for `Cn1c(=O)c2c(nc(S(=O)(=O)Cc3cc(Cl)ccc3Cl)n2C)n(C)c1=O` [Compound 55, 8-(2,5-dichlorobenzylsulfonyl)-1,3,7-trimethyl-1H-purine-2,6(3H,7H)-dione] is 1000 to 100000 nM.
On the same count and under the same terms, as for `Cn1c(=O)c2c(nc(S(=O)(=O)CC3CC3)n2C)n(Cc2ccccc2F)c1=O` [Compound 133, 8-((cyclopropylmethyl)sulfonyl)-3-(2-fluorobenzyl)-1,7-dimethyl-1H-purine-2,6(3H,7H)-dione], the figure is 1000 to 100000 nM; as for `Cn1c(=O)c2c(nc(S(C)(=O)=O)n2C)n(CC#N)c1=O` [Compound 107, 2-(1,7-dimethyl-8-(methylsulfonyl)-2,6-dioxo-1H-purin-3(2H,6H,7H)-yl)acetonitrile], 1000 to 100000 nM.
As to `Cn1c(=O)c2c(nc(S(C)(=O)=O)n2C)n(Cc2ccccc2)c1=O` [Compound 103, 3-benzyl-1,7-dimethyl-8-(methylsulfonyl)-1H-purine-2,6(3H,7H)-dione], the EC50 lay within 1000 to 100000 nM.

The same assay, now with this note: Homo sapiens; Series 2 (Table 2) compounds; HT-29 necroptosis assay; read-out: Series 2 compound necroptosis activity.
On to `Cn1c(=O)c2c(nc(S(C)(=O)=O)n2C)n(CC#Cc2cc(N)cc(NC(=O)C3CC3)c2)c1=O` [Compound 40], for which the EC50 fell in the range of 1 to 100 nM.
Still for that read-out and setting: as for `COCCOc1cc(C#CCn2c(=O)n(C)c(=O)c3c2nc([S+](C)[O-])n3C)cc(NC(=O)C2CC2)c1` (centres unmarked) [Compound 54], the figure is 1 to 100 nM; as for `Cn1c(=O)c2c(nc(S(=O)(=O)CCCO)n2C)n(C)c1=O` [Compound 3], 100 to 10000 nM; as for `Cn1c(=O)c2c(nc(S(C)(=O)=O)n2C)n(CC#Cc2ccc3[nH]c(=O)[nH]c3c2)c1=O` [Compound 23], 100 to 10000 nM.
Same read-out and setting: as for `Cn1c(=O)c2c(nc(S(=O)(=O)CC3CC3)n2C)n(CC#Cc2cc(NC(=O)CN3CCOCC3)cc(NC(=O)CN3CCOCC3)c2)c1=O` [Compound 28], the figure is 1 to 100 nM.
On to `Cn1c(=O)c2c(nc([S+](C)[O-])n2C)n(CC#Cc2cccc(O)c2)c1=O` (centres unmarked) [Compound 8], for which the EC50 was 1 to 100 nM.
On the same count and under the same terms, as for `Cn1c(=O)c2c(nc(S(C)(=O)=O)n2C)n(CC#Cc2cccc(NCCN3CCCCC3)c2)c1=O` [Compound 18], the figure is 100 to 10000 nM; as for `Cn1c(=O)c2c(nc(S(=O)(=O)CC3CC3)n2C)n(CC#Cc2ccnc(NC(=O)CN3CCOCC3)c2)c1=O` [Compound 32], 1 to 100 nM.

The same assay, now with this note: Series 1 (Table 1) compounds 1-146; HT-29 cells, TNF-α/Smac mimetic/z-VAD, 24 hrs, cell viability by ATP level; read-out: Series 1 compound necroptosis activity.
With `COc1ccc(CS(=O)(=O)c2nc3c(c(=O)n(C)c(=O)n3C)n2C)cc1` [Compound 37, 8-(4-methoxybenzylsulfonyl)-1,3,7-trimethyl-1H-purine-2,6(3H,7H)-dione], the EC50 was 1000 to 1e+06 nM.
With `CCCn1c(=O)c2c(nc(S(C)(=O)=O)n2C)n(C)c1=O` [Compound 90, 3,7-dimethyl-8-(methylsulfonyl)-1-propyl-1H-purine-2,6(3H,7H)-dione], the EC50 lay in the range of 1000 to 1e+06 nM.
Same read-out and setting: as for `Cn1c(=O)c2c(nc(S(=O)(=O)Cc3ccc(C(N)=O)cc3)n2C)n(C)c1=O` [Compound 47, 4-((1,3,7-trimethyl-2,6-dioxo-2,3,6,7-tetrahydro-1H-purin-8-ylsulfonyl)methyl)benzamide], the figure is 1000 to 1e+06 nM; as for `CCCOc1ccc(OC)c(CS(=O)(=O)c2nc3c(c(=O)n(C)c(=O)n3C)n2C)c1` [Compound 68, 8-(2-methoxy-5-propoxybenzylsulfonyl)-1,3,7-trimethyl-1H-purine-2,6(3H,7H)-dione], 1000 to 1e+06 nM.
For the molecule `Cn1c(=O)c2c(nc(S(=O)(=O)CC3CC3)n2C)n(Cc2ccccn2)c1=O` [Compound 142, 8-((cyclopropylmethyl)sulfonyl)-1,7-dimethyl-3-(pyridin-2-ylmethyl)-1H-purine-2,6(3H,7H)-dione], the EC50 was in the range of 1000 to 1e+06 nM.
The same measure, in the same setting: as for `Cn1c(=O)c2c(nc(S(=O)(=O)CCc3ccccc3)n2C)n(C)c1=O` [Compound 22, 1,3,7-trimethyl-8-(phenethylsulfonyl)-1H-purine-2,6(3H,7H)-dione], the figure is 1000 to 1e+06 nM; as for `Cn1c(=O)c2c(nc(S(=O)(=O)Cc3ccc(Cl)cc3)n2C)n(C)c1=O` [Compound 31, 8-(4-chlorobenzylsulfonyl)-1,3,7-trimethyl-1H-purine-2,6(3H,7H)-dione], 1000 to 1e+06 nM.
The same measure, in the same setting: the figure for `COc1cccc(OC)c1CS(=O)(=O)c1nc2c(c(=O)n(C)c(=O)n2C)n1C` [Compound 62, 8-(2,6-dimethoxybenzylsulfonyl)-1,3,7-trimethyl-1H-purine-2,6(3H,7H)-dione] is 1000 to 1e+06 nM; for `Cn1c(=O)c2[nH]c(S(C)(=O)=O)nc2n(C)c1=O` [Compound 72, 1,3-dimethyl-8-(methylsulfonyl)-1H-purine-2,6(3H,7H)-dione] it is 1000 to 1e+06 nM.
With `CCCn1c(S(C)(=O)=O)nc2c1c(=O)n(C)c(=O)n2C` [Compound 83, 1,3-dimethyl-8-(methylsulfonyl)-7-propyl-1H-purine-2,6(3H,7H)-dione], the EC50 fell in the range of 1000 to 1e+06 nM.
The same measure, in the same setting: as for `CCC[S+]([O-])c1nc2c(c(=O)n(C)c(=O)n2C)n1C` (centres unmarked) [Compound 9, 1,3,7-trimethyl-8-(propylsulfinyl)-1H-purine-2,6(3H,7H)-dione], the figure is 1000 to 1e+06 nM; as for `Cn1c(=O)c2c(nc(S(=O)(=O)Cc3ccc(Br)cc3)n2C)n(C)c1=O` [Compound 34, 8-(4-bromobenzylsulfonyl)-1,3,7-trimethyl-1H-purine-2,6(3H,7H)-dione], 1000 to 1e+06 nM; as for `CCCSc1nc2c(c(=O)n(C)c(=O)n2C)n1CC` [Compound 78, 7-ethyl-1,3-dimethyl-8-(propylthio)-1H-purine-2,6(3H,7H)-dione], 1000 to 1e+06 nM.
`CCCS(=O)(=O)c1nc2c(c(=O)n(C)c(=O)n2C)n1CC` [Compound 80, 7-ethyl-1,3-dimethyl-8-(propylsulfonyl)-1H-purine-2,6(3H,7H)-dione]: the EC50 fell in the range of 1000 to 1e+06 nM.
On the same count and under the same terms, as for `Cn1c(=O)c2c(nc(S(=O)(=O)Cc3ccc(Br)c(Cl)c3)n2C)n(C)c1=O` [Compound 64, 8-(4-bromo-3-chlorobenzylsulfonyl)-1,3,7-trimethyl-1H-purine-2,6(3H,7H)-dione], the figure is 1000 to 1e+06 nM; as for `Cn1c(=O)c2c(nc(S(=O)(=O)Cc3ccc(C4(C(F)(F)F)N=N4)cc3)n2C)n(C)c1=O` [Compound 41, 1,3,7-trimethyl-8-(4-(3-(trifluoromethyl)-3H-diazirin-3-yl)benzylsulfonyl)-1H-purine-2,6(3H,7H)-dione], 1000 to 1e+06 nM.

Still in this assay, the particulars now being: Series 1 (Table 1) compounds 147-176; activity extrapolated; read-out: Series 1 compound necroptosis activity (extrapolated).
As for `Cn1c(=O)c2c(nc(S(C)(=O)=O)n2C)n(CC#Cc2ccc3c(c2)NCC3)c1=O` [Compound 171], the EC50 was 1000 to 1e+06 nM.
The same measure, in the same setting: the figure for `CCCNc1cccc(C#CCn2c(=O)n(C)c(=O)c3c2nc(S(C)(=O)=O)n3C)c1` [Compound 162] is 1000 to 1e+06 nM; for `Cn1c(=O)c2c(nc(S(=O)(=O)CCc3ccccc3)n2C)n(CC#Cc2ccc3nc[nH]c3c2)c1=O` [Compound 164] it is 1000 to 1e+06 nM.
